In the assay the test system is P388 leukemia ip, CD2F1 mice, survival T/C. Put plainly: NCI In Vivo Anticancer Drug Screen. Data for tumor model P388 Leukemia (intraperitoneal) in CD2F1 (CDF1) mice. Particulars: endpoint: median survival time, higher = longer survival. A digest of the protocol: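 Mice carrying the transplanted tumor received test compound or vehicle. Survival was recorded in each group, and the value is the treated-group measurement divided by that of the vehicle-treated control group.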

The mark [1] stands for this setting: dose: 50.0 mg/kg/injection, schedule: Q01DX009 (ip), vehicle: saline with Tween-80.
The mark [2] stands for this setting: dose: 100.0 mg/kg/injection, schedule: Q01DX009 (ip), vehicle: saline with Tween-80.
The mark [3] stands for this setting: dose: 200.0 mg/kg/injection, schedule: Q01DX009 (ip), vehicle: saline with Tween-80.
Where [4] appears, read: dose: 60.0 mg/kg/injection, schedule: Q01DX005 (ip), vehicle: saline with Tween-80.
Where [5] appears, read: dose: 120.0 mg/kg/injection, schedule: Q01DX005 (ip), vehicle: saline with Tween-80.
Setting [6] is: dose: 240.0 mg/kg/injection, schedule: Q01DX005 (ip), vehicle: saline with Tween-80.

“And” between values parts separate entries of the source, which are not always exact repeats. Equal values may be shown once. Toxic doses and inconclusive results are not listed.

On to `CC1(C)OS(=O)(=O)C=C1Br`, for which the T/C by setting is: (dose: 100.0 mg/kg/injection, schedule: Q04DX003 (ip), vehicle: saline) 96 % of control; (dose: 200.0 mg/kg/injection, schedule: Q04DX003 (ip), vehicle: saline) 110 % of control; (dose: 400.0 mg/kg/injection, schedule: Q04DX003 (ip), vehicle: saline) 103 % of control.

Turning to `COc1cc2c(cc1OC)C13CC(=O)N(C(C)=O)N1CCCN3C2=O` (stereo unspecified), the T/C reads like this: (dose: 30.0 mg/kg/injection, schedule: Q01DX005 (ip), vehicle: Klucel (hydroxypropylcellulose) (HPC)) 106 % of control; (dose: 60.0 mg/kg/injection, schedule: Q01DX005 (ip), vehicle: Klucel (hydroxypropylcellulose) (HPC)) 97 % of control; (dose: 120.0 mg/kg/injection, schedule: Q01DX005 (ip), vehicle: Klucel (hydroxypropylcellulose) (HPC)) 91 % of control and 97 % of control; (dose: 240.0 mg/kg/injection, schedule: Q01DX005 (ip), vehicle: Klucel (hydroxypropylcellulose) (HPC)) 88 % of control.

As for `C#CC(C)(O)C(O)c1ccccc1` (stereo unspecified), the T/C is 98 % of control under setting [1], 109 % of control under setting [2] and 96 % of control under setting [3].

For `C=C1CC2(CCCC3(C2)OCCO3)OC1=O` (stereo unspecified), the T/C (dose: 50.0 mg/kg/injection, schedule: Q01DX005 (ip), vehicle: Klucel (hydroxypropylcellulose) (HPC)) was 95 % of control; the T/C (dose: 100.0 mg/kg/injection, schedule: Q01DX005 (ip), vehicle: Klucel (hydroxypropylcellulose) (HPC)) is 95 % of control; the T/C (dose: 200.0 mg/kg/injection, schedule: Q01DX005 (ip), vehicle: Klucel (hydroxypropylcellulose) (HPC)) is 106 % of control.

In the case of `COc1cc2cc3c4cc(OC)c(OC)cc4cc[n+]3c(C)c2cc1OC`, the T/C runs as follows: (dose: 25.0 mg/kg/injection, schedule: Q01DX009 (ip), vehicle: other) 155 % of control; (dose: 50.0 mg/kg/injection, schedule: Q01DX009 (ip), vehicle: other) 152 % of control and 169 % of control and 178 % of control; (dose: 50.0 mg/kg/injection, schedule: Q01DX009 (ip), vehicle: saline sonified) 109 % of control; (dose: 50.0 mg/kg/injection, schedule: Q04DX003 (ip), vehicle: other) 156 % of control and 158 % of control; (dose: 100.0 mg/kg/injection, schedule: Q01DX009 (ip), vehicle: other) 172 % of control and 189 % of control and 198 % of control; (dose: 100.0 mg/kg/injection, schedule: Q01DX009 (ip), vehicle: saline sonified) 109 % of control. Also, the T/C is 104 % of control (dose: 100.0 mg/kg/injection, schedule: Q01DX009 (oral), vehicle: saline); 153 % of control and 169 % of control and 177 % of control (dose: 100.0 mg/kg/injection, schedule: Q04DX003 (ip), vehicle: other); 104 % of control (dose: 200.0 mg/kg/injection, schedule: Q01DX001 (oral), vehicle: saline); 153 % of control and 162 % of control (dose: 200.0 mg/kg/injection, schedule: Q01DX009 (ip), vehicle: other); 109 % of control (dose: 200.0 mg/kg/injection, schedule: Q01DX009 (ip), vehicle: saline sonified); 104 % of control (dose: 200.0 mg/kg/injection, schedule: Q01DX009 (oral), vehicle: saline). Also, the T/C is 166 % of control (2×) and 199 % of control (dose: 200.0 mg/kg/injection, schedule: Q04DX003 (ip), vehicle: other); 104 % of control (dose: 200.0 mg/kg/injection, schedule: Q04DX003 (oral), vehicle: saline); 100 % of control (dose: 400.0 mg/kg/injection, schedule: Q01DX001 (oral), vehicle: saline); 182 % of control (dose: 400.0 mg/kg/injection, schedule: Q01DX009 (ip), vehicle: other); 90 % of control (dose: 400.0 mg/kg/injection, schedule: Q01DX009 (ip), vehicle: saline sonified); 100 % of control (dose: 400.0 mg/kg/injection, schedule: Q01DX009 (oral), vehicle: saline). Further, the T/C (dose: 400.0 mg/kg/injection, schedule: Q04DX003 (ip), vehicle: other) was 161 % of control and 165 % of control and 191 % of control; the T/C (dose: 400.0 mg/kg/injection, schedule: Q04DX003 (ip), vehicle: saline sonified) is 150 % of control; the T/C (dose: 400.0 mg/kg/injection, schedule: Q04DX003 (oral), vehicle: saline) is 104 % of control; the T/C (dose: 800.0 mg/kg/injection, schedule: Q01DX001 (oral), vehicle: saline) was 104 % of control; the T/C (dose: 800.0 mg/kg/injection, schedule: Q04DX003 (oral), vehicle: saline) is 109 % of control.

Take `CCOC(=O)NC(=S)Nc1ccsc1`: the T/C is 99 % of control under setting [1], 104 % of control under setting [2] and 102 % of control under setting [3].

Regarding `CC1(C)OC2C(COC(=O)c3ccc([N+](=O)[O-])cc3)OC(NC(=O)N(CCCl)N=O)C2O1` (stereo unspecified), the T/C is 119 % of control (dose: 0.09 mg/kg/injection, schedule: Q01DX009 (ip), vehicle: saline with Tween-80); 119 % of control (dose: 0.19 mg/kg/injection, schedule: Q01DX009 (ip), vehicle: saline with Tween-80); 119 % of control (dose: 0.39 mg/kg/injection, schedule: Q01DX009 (ip), vehicle: saline with Tween-80); 153 % of control (dose: 1.56 mg/kg/injection, schedule: Q01DX009 (ip), vehicle: saline with Tween-80); 174 % of control (dose: 3.12 mg/kg/injection, schedule: Q01DX009 (ip), vehicle: saline with Tween-80); 202 % of control (dose: 12.5 mg/kg/injection, schedule: Q01DX009 (ip), vehicle: saline with Tween-80). Further, the T/C (dose: 25.0 mg/kg/injection, schedule: Q01DX009 (ip), vehicle: saline with Tween-80) was 272 % of control; the T/C under setting [1] is 282 % of control; the T/C under setting [2] is 154 % of control; the T/C under setting [3] was 109 % of control.

As for `O=C1CCCC2=C1C(c1ccc(Cl)c(Cl)c1)C1=C(CCCC1=O)O2`, the T/C reads like this: under setting [4], 95 % of control; under setting [5], 95 % of control; under setting [6], 94 % of control.

As for `Cc1ncc(COP(=O)(O)O)c(C2NCCS2)c1O` (stereo unspecified), the T/C is 102 % of control (dose: 60.0 mg/kg/injection, schedule: Q01DX005 (ip), vehicle: saline); 105 % of control (dose: 120.0 mg/kg/injection, schedule: Q01DX005 (ip), vehicle: saline); 102 % of control (dose: 240.0 mg/kg/injection, schedule: Q01DX005 (ip), vehicle: saline).

In the case of `CCN(CC)CCNc1ccc(COC(=O)OC)c2sc3ccccc3c(=O)c12`, the T/C by setting is: (dose: 2.5 mg/kg/injection, schedule: Q01DX005 (ip), vehicle: saline with Tween-80) 118 % of control; (dose: 5.0 mg/kg/injection, schedule: Q01DX005 (ip), vehicle: saline with Tween-80) 124 % of control; (dose: 6.25 mg/kg/injection, schedule: Q01DX005 (ip), vehicle: saline with Tween-80) 120 % of control; (dose: 10.0 mg/kg/injection, schedule: Q01DX005 (ip), vehicle: saline with Tween-80) 124 % of control; (dose: 12.5 mg/kg/injection, schedule: Q01DX005 (ip), vehicle: saline with Tween-80) 111 % of control; (dose: 20.0 mg/kg/injection, schedule: Q01DX005 (ip), vehicle: saline with Tween-80) 122 % of control.

With `O=NNc1ccc(Sc2ccc3ccccc3c2)cn1`, the T/C (dose: 3.12 mg/kg/injection, schedule: Q01DX009 (ip), vehicle: saline) is 114 % of control and 122 % of control; the T/C (dose: 6.25 mg/kg/injection, schedule: Q01DX009 (ip), vehicle: saline) was 120 % of control; the T/C (dose: 12.5 mg/kg/injection, schedule: Q01DX009 (ip), vehicle: saline) is 114 % of control.

`COC(=O)C1=C(C(=O)OC)C2(C)C=CC1C1C(OC(C)=O)C(OC(C)=O)C12` (stereo unspecified): the T/C runs as follows: (dose: 100.0 mg/kg/injection, schedule: Q04DX003 (ip), vehicle: Klucel (hydroxypropylcellulose) (HPC)) 105 % of control; (dose: 200.0 mg/kg/injection, schedule: Q04DX003 (ip), vehicle: Klucel (hydroxypropylcellulose) (HPC)) 108 % of control; (dose: 400.0 mg/kg/injection, schedule: Q04DX003 (ip), vehicle: Klucel (hydroxypropylcellulose) (HPC)) 107 % of control.

Regarding `O=Cc1ccc([N+](=O)[O-])s1`, the T/C (dose: 50.0 mg/kg/injection, schedule: Q01DX009 (ip), vehicle: saline) was 120 % of control.

As for `CN(C)C1CS(=O)(=O)OC2=C1CCSc1ccccc12` (stereo unspecified), the T/C is, setting by setting: under setting [4], 102 % of control; under setting [5], 99 % of control; under setting [6], 100 % of control.

On to `O=C1C=CSc2ccccc2N1`, for which the T/C under setting [4] was 110 % of control, the T/C under setting [5] was 103 % of control and the T/C under setting [6] was 101 % of control.

Turning to `N=C(N)SCCC(=O)NCNC(=O)CCSC(=N)N`, the T/C was 98 % of control (dose: 50.0 mg/kg/injection, schedule: Q01DX005 (ip), vehicle: suspension in saline) and 99 % of control (dose: 100.0 mg/kg/injection, schedule: Q01DX005 (ip), vehicle: suspension in saline).

Source of the values: PubChem BioAssay AID330 (DTP/NCI, 2004).
